From patent US7910102B2 (priority 2006, dated 2011)
Values joined by “and” are separate entries in the source; they are usually repeats but may differ in a detail not shown here. Equal entries are not always repeated. “Also recorded” adds a separate entry of the source. Bridge positions count the residues as written; N and C are the ends. Square brackets hold non-standard residues; d marks the D form. Ends that are not written are not given here. Peptide text beside a SMILES is read from it. 1Nal = N[C@@H](Cc1cccc2ccccc12)C(=O)O

Legend:
[1] = tested on: IL-2 production in human whole blood; assay type: cell-based
human Kv1.3 [2] = target: T1, human Kv1.3 (Homo sapiens, UniProt P22001); assay type: cell-based; settings: for IC50: read-out: IC50 Sustained
[3] = tested on: IFN-g production in human whole blood; assay type: cell-based
CD40L on CD4+ T cells = assay type: cell-based, human
IL-2R on CD4+ T cells = assay type: cell-based, human
human Kv1.3 [4] = target: T1, human Kv1.3; assay type: cell-based; design: expressed in transfected cells

T1 sequence (P22001 whole entry): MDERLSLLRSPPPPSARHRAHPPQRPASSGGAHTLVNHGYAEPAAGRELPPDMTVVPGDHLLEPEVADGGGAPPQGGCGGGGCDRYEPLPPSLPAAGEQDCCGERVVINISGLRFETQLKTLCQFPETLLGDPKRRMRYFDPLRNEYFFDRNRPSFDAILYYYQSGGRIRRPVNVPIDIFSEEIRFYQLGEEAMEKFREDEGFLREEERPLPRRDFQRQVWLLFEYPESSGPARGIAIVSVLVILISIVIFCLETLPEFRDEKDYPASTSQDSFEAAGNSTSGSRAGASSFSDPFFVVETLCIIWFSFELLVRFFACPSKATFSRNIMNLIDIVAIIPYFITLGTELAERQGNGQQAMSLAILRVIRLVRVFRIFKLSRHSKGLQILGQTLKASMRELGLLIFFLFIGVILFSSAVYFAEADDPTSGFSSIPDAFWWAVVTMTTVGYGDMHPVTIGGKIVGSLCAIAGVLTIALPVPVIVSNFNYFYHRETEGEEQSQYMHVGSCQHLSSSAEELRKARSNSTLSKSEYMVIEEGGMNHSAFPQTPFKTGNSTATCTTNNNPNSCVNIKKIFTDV

“SEQ ID No: 4989: OSK1 analog without beta strand 1 (labeled des 1-7), Table 42 (CKISRQCLKPCKDAGMRFGKCMNGKCHC-NH2; ends and bridges not checked)” was tested, and the “blockade of the whole blood cytokine response / inflammation (in words)” value [1] was “still retain activity in blocking inflammation”.

For PEG-Fc-L10-SHK(2-35), the IC50 (human Kv1.3 [2]) was 0.175 nM and 0.158 nM.

Fc-L10-OSK1[K7S] was tested, and the “fold less potent than the synthetic OSK1 toxin peptide” value (human Kv1.3 [2]) was “approximately 10 fold”.

In the case of `CC[C@H](C)[C@@H]1NC(=O)[C@H](CCCCN)NC(=O)[C@@H](NC(=O)[C@H](CCCCN)NC(=O)[C@@H](NC(=O)[C@H](CC(N)=O)NC(=O)[C@@H](NC(=O)[C@@H](NC(=O)[C@@H](NC(=O)CN)C(C)C)[C@@H](C)CC)[C@@H](C)CC)C(C)C)CSSC[C@@H]2NC(=O)[C@H](CCCCN)NC(=O)CNC(=O)[C@H](Cc3ccccc3)NC(=O)[C@H](CCCNC(=N)N)NC(=O)[C@H](CCSC)NC(=O)CNC(=O)[C@H](C)NC(=O)[C@H](Cc3cccc4ccccc34)NC(=O)[C@H](CCCCN)NC(=O)[C@@H]3CSSC[C@@H](C(=O)N[C@H](C(=O)N4CCC[C@H]4C(=O)N[C@@H](CCCCN)C(=O)O)[C@@H](C)O)NC(=O)[C@H](Cc4c[nH]cn4)NC(=O)[C@H](CSSC[C@H](NC(=O)[C@H](CCC(N)=O)NC(=O)[C@H](CCCNC(=N)N)NC(=O)[C@H](CO)NC1=O)C(=O)N[C@@H](CC(C)C)C(=O)N[C@@H](CCC(=O)O)C(=O)N1CCC[C@H]1C(=O)N3)NC(=O)[C@H](CCCCN)NC(=O)CNC(=O)[C@H](CC(N)=O)NC(=O)[C@H](CCSC)NC2=O` [K20Nal] (H-GVIINVKCKISRQCLEPCK[1Nal]AGMRFGKCMNGKCHCTPK-OH; disulfide 8-28, 14-33, 18-35), the IC50 ([3]; read-out: Analogue Activity (IC50, pM) WB/IFNg) is reported as 12 pM.

With “Fc-L10-ShK[2-35]: human IgG1 Fc fused via L10 linker to ShK[2-35]; peptibody” the “block of thapsigargin-induced IL-2 production in human whole blood (in words)” value [1] was “suppressed; also recorded: potently blocked IL-2 secretion”, the “block of thapsigargin-induced upregulation of CD40L on T cells (in words)” value (shortened to “block … of CD40L on T cells (in words)”) (CD40L on CD4+ T cells) was “blocked” and the “block of thapsigargin-induced upregulation of the IL-2R on T cells (in words)” value (from here on “block … of the IL-2R on T cells (in words)”) (IL-2R on CD4+ T cells) was “blocked”. For the same molecule, the “block of thapsigargin-induced IFN-g production in human whole blood (in words)” value [3] was “suppressed; also recorded: blocked”.

With `CC[C@H](C)[C@@H]1NC(=O)[C@H](CCCCN)NC(=O)[C@@H](NC(=O)[C@H](CCCCN)NC(=O)[C@@H](NC(=O)[C@H](CC(N)=O)NC(=O)[C@@H](NC(=O)[C@@H](NC(=O)[C@@H](NC(=O)CN)C(C)C)[C@@H](C)CC)[C@@H](C)CC)C(C)C)CSSC[C@@H]2NC(=O)[C@H](CCCCN)NC(=O)CNC(=O)[C@H](Cc3ccccc3)NC(=O)[C@H](CCCNC(=N)N)NC(=O)[C@H](CCSC)NC(=O)CNC(=O)[C@H](C)NC(=O)[C@H](CCCCN)NC(=O)[C@H](CCCCN)NC(=O)[C@@H]3CSSC[C@@H](C(=O)N[C@H](C(=O)N4CCC[C@H]4C(=O)N[C@@H](CCCCN)C(=O)O)[C@@H](C)O)NC(=O)[C@H](Cc4c[nH]cn4)NC(=O)[C@H](CSSC[C@H](NC(=O)[C@H](CCC(N)=O)NC(=O)[C@H](CCCNC(=N)N)NC(=O)[C@H](CO)NC1=O)C(=O)N[C@@H](CC(C)C)C(=O)N[C@@H](CCC(=O)O)C(=O)N1CCC[C@H]1C(=O)N3)NC(=O)[C@H](CCCCN)NC(=O)CNC(=O)[C@H](CC(N)=O)NC(=O)[C@H](C)NC2=O` [OSK1[Ala-29]] (H-GVIINVKCKISRQCLEPCKKAGMRFGKCANGKCHCTPK-OH; disulfide 8-28, 14-33, 18-35) the “potency in blocking the cytokine response relative to cyclosporin A (in words)” value [1] was “several orders of magnitude more potent” and the “inhibition of the Kv1.3 current (in words)” value (human Kv1.3 [4]) was “potent inhibition of the Kv1.3 current”.

With PEG-Fc-L10-OSK1 the IC50 (human Kv1.3 [2]) was 0.256 nM and 0.332 nM.

“iberiotoxin (QFTDVDCSVSKECWSVCKDLFGVDRGKCMGKKCRCYQ; Definition of Artificial Sequence: Synthetic peptide) [IbTx, reference compound]” was tested, and the “block of thapsigargin-induced IL-2 production in human whole blood (in words)” value [1] was “no significant activity”, the “block … of CD40L on T cells (in words)” value (CD40L on CD4+ T cells) was “no significant activity” and the “block … of the IL-2R on T cells (in words)” value (IL-2R on CD4+ T cells) was “no significant activity”. For the same molecule, the “block of thapsigargin-induced IFN-g production in human whole blood (in words)” value [3] was “no significant activity”.

“dendrotoxin-K [DTX-K, reference compound]” was tested, and the “block … of CD40L on T cells (in words)” value (CD40L on CD4+ T cells) was “no significant activity” and the “block … of the IL-2R on T cells (in words)” value (IL-2R on CD4+ T cells) was “no significant activity”.

In the case of “Fc-L10-OSK1[K7S,E16K,K20D]: OSK1-peptibody with triple amino acid substitutions at positions 7, 16 and 20”, the “fold less potent than the synthetic OSK1 toxin peptide” value (human Kv1.3 [2]) is reported as “approximately 21 fold”.

B1: FcLoop-L2-OsK1-L2: OsK1 inserted into the human IgG1 Fc-loop domain with Gly linkers (protein)
chain: MDKTHTCPPCPAPELLGGPSVFLFPPKPKDTLMISRTPEVTCVVVDVSHEDPEVKFNWYVDGVEVHNAKTKPREEQYNSTYRVVSVLTVLHQDWLNGKEYKCKVSNKALPAPIEKTISKAKGQPREPQVYTLPPSRDELGGGVIINVKCKISRQCLEPCKKAGMRFGKCMNGKCHCTPKGGTKNQVSLTCLVKGFYPSDIAVEWESNGQPENNYKTTPPVLDSDGSFFLYSKLTVDKSRWQQGNVFSCSVMHEALHNHYTQKSLSLSPGK
modifications: Definition of Artificial Sequence: Synthetic protein
For B1, the “blockade of the whole blood cytokine response / inflammation (in words)” value [1] was “IC50 values in the pM range”.

B2: FcLoop-L4-OsK1-L4: FcLoop OSK1 toxin conjugate as named in b1013 only (protein)
chain: MDKTHTCPPCPAPELLGGPSVFLFPPKPKDTLMISRTPEVTCVVVDVSHEDPEVKFNWYVDGVEVHNAKTKPREEQYNSTYRVVSVLTVLHQDWLNGKEYKCKVSNKALPAPIEKTISKAKGQPREPQVYTLPPSRDELGGGGGVIINVKCKISRQCLEPCKKAGMRFGKCMNGKCHCTPKGGTKNQVSLTCLVKGFYPSDIAVEWESNGQPENNYKTTPPVLDSDGSFFLYSKLTVDKSRWQQGNVFSCSVMHEALHNHYTQKSLSLSPGK
For B2, the “blockade of the whole blood cytokine response / inflammation (in words)” value [1] was “IC50 values in the pM range”.

B3: FcLoop-L2-ShK-L2: ShK inserted into the human IgG1 Fc-loop domain with Gly linkers (protein)
chain: MDKTHTCPPCPAPELLGGPSVFLFPPKPKDTLMISRTPEVTCVVVDVSHEDPEVKFNWYVDGVEVHNAKTKPREEQYNSTYRVVSVLTVLHQDWLNGKEYKCKVSNKALPAPIEKTISKAKGQPREPQVYTLPPSRDELGGRSCIDTIPKSRCTAFQCKHSMKYRLSFCRKTCGTCGGTKNQVSLTCLVKGFYPSDIAVEWESNGQPENNYKTTPPVLDSDGSFFLYSKLTVDKSRWQQGNVFSCSVMHEALHNHYTQKSLSLSPGK
modifications: Definition of Artificial Sequence: Synthetic protein
For B3, the “blockade of the whole blood cytokine response / inflammation (in words)” value [1] was “IC50 values in the pM range”.

B4: PEGylated CH2-OSK1: CH2-OSK1 fusion protein mono-PEGylated with 20 kD methoxy-PEG-aldehyde (conjugate)
chain: MGGHHHHHHGGGPSVFLFPPKPKDTLMISRTPEVTCVVVDVSHEDPEVKFNWYVDGVEVHNAKTKPREEQYNSTYRVVSVLTVLHQDWLNGKEYKCKVSNKALPAPIEKTISGGGGSGGGGSGVIINVKCKISRQCLEPCKKAGMRFGKCMNGKCHCTPK
In the case of B4, the “blockade of the whole blood cytokine response / inflammation (in words)” value [1] is reported as “active in blocking inflammation; also recorded: modest blockade of the whole blood cytokine response”.
